Laboratory results as given in PMC12202533, “Mechanistic Insights and Anti-cancer Activity of 2H-benzo[b][1,4]oxazin-3(4H)-one Linked 1,2,3-Triazoles in Human Cancer Cells” (Frontiers in Pharmacology, 2025).

Assays:
[1] = system: KM mice; assay: Acute toxicity test in mice; format: in vivo; conditions: 800 mg/kg oral gavage; for safety / toxicity in mice: 800 mg/kg
Method: We further evaluated the safety of compound 14b through an acute toxicity study in KM mice. Male and female mice were divided into two groups: a control group and a 14 b-treated group. The treated group received 800 mg/kg of compound 14b via oral gavage, while the control group was given an equivalent volume of solvent. Body weight was monitored over a 15-day period. At the end of the study, blood samples were collected from the retro-orbital sinus to assess the biochemical markers GPT and GOT, and the major organs—heart, liver, spleen, lungs, and kidneys—were weighed and subjected to HE staining.

[2] = system: Huh7; assay: CCK-8 cell viability assay; format: cell-based; conditions: Homo sapiens, Huh-7, Huh7, 40 μM, 48 h, read-out: Cell viability (100%), 40 μM, 48 h, Huh7
[3] = system: MCF-7; assay: CCK-8 cell viability assay; format: cell-based; conditions: Homo sapiens, MCF7, MCF-7, 40 μM, 48 h, read-out: Cell viability (100%), 40 μM, 48 h, MCF-7
[4] = system: SKOV3; assay: CCK-8 cell viability assay; format: cell-based; conditions: Homo sapiens, SK-OV-3, SKOV3, 40 μM, 48 h, read-out: Cell viability (100%), 40 μM, 48 h, SKOV3

Structure (SMILES) | HE staining of the major organs (heart, liver, spleen, lungs, and kidneys) [1] | organ indices of the major organs versus control group [1] | safety / toxicity in mice [1] | body weight versus control group ([1]; 15-day period) | GPT levels ([1]; blood) | safety / toxicity in mice ([1]; listed as 14 b) | viability at 40 µM [2] [%] | viability at 40 µM [3] [%] | viability at 40 µM [4] [%]
O=C1COc2ccc(NC(=O)c3cccc(-c4cn(-c5cccc(Br)c5)nn4)c3)cc2N1 [Compound 14b] | no significant histopathological differences | no significant changes | low toxicity | no significant differences | slight but not statistically significant increase | favorable safety profile | 123 ± 2.08 | 114 ± 1.68 | 98.02 ± 0.87
O=C1COc2ccc(NC(=O)c3cccc(-c4cn(-c5ccccc5F)nn4)c3)cc2N1 [Compound 14c] | – | – | – | – | – | – | 125 ± 1.53 | 110 ± 2.45 | 57.2 ± 4.16
